# Data taken from ChEMBL document CHEMBL1201862, “PubChem BioAssay data set” (2004).
# Active and inactive are the calls of the source.
# Tests used:
# Hexokinase = target: T1, Hexokinase (Trypanosoma brucei, UniProt Q38C41); assay: Confirmation assay for inhibitors of Trypanosoma brucei hexokinase 1-Analogue-first series. [Related pubchem assays (depositor defined):AID1430, AID1632, AID2516, AID2560, AID2579, AID2600, AID449725, AID492951]; assay type: functional
# T1 sequence (Q38C41 whole entry): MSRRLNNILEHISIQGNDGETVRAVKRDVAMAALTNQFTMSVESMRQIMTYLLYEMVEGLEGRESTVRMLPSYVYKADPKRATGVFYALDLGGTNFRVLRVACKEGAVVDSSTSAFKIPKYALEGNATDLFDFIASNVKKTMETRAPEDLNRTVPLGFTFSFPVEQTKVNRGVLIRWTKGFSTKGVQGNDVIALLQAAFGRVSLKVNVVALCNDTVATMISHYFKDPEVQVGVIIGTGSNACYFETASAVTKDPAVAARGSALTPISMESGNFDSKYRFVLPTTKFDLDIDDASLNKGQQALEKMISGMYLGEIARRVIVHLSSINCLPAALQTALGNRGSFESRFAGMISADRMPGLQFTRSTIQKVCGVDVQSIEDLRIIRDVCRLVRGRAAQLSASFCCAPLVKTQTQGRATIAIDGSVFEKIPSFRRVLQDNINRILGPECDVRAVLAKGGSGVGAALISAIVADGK
# [1] = target: Polyadenylate-binding protein 1 (Homo sapiens, UniProt P11940); assay: PABP inhibition in translation initiation, SAR follow-up (AID 435018); assay type: functional
# Chain of Polyadenylate-binding protein 1 (P11940 whole entry): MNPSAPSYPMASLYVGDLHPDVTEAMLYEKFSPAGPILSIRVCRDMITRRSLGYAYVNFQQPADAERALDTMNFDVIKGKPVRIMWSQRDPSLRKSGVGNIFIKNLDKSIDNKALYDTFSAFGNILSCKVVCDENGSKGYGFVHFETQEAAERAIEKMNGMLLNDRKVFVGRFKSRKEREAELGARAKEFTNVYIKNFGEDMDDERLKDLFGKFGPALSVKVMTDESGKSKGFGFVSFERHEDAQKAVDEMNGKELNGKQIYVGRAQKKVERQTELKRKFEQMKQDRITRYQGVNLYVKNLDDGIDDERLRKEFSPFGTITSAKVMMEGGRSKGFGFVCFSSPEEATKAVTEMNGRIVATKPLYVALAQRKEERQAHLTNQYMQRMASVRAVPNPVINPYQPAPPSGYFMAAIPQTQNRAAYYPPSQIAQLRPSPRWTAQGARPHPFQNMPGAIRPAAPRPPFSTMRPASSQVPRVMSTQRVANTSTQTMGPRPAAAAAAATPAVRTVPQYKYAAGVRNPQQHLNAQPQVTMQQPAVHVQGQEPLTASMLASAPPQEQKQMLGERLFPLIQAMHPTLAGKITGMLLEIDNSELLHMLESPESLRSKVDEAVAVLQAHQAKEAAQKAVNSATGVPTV
# [2] = target: Eukaryotic translation initiation factor 4H (Homo sapiens, UniProt Q15056); assay: eIF4H inhibition in translation initiation, SAR follow-up (AID 435011); assay type: functional
# cells = assay type: functional
# [3] = THP-1 cell cytotoxicity, dose response, cytotoxicity control for non-replicating M. tuberculosis project (AID 489025); assay type: functional
# [4] = inhibitors of SNCA 5'UTR-driven reporter translation, confirmation, H4 neuroglioma cells, luminescence (AID 1988); assay type: functional, cell-based
# [5] = tested on: Streptococcus sp. 'group A'; assay: growth inhibition of control SK(-) GAS strain, dose response, counter-screen for streptokinase expression inhibitor project, luminescence, kanamycin, BacTiterGlo, confirmation (AID 1900); assay type: functional, organism-based
# [6] = target: Heat shock protein HSP 90-alpha (Homo sapiens, UniProt P07900); assay type: functional, organism-based
# [7] = Vero E6 cell cytotoxicity, dose response, cytotoxicity control for non-replicating M. tuberculosis project, secondary assay (AID 492998); assay type: functional, VeroE6; conditions: Vero C1008
# [8] = HepG2 cell cytotoxicity, dose response, cytotoxicity control for non-replicating M. tuberculosis project (AID 489018); assay type: functional; conditions: Mycobacterium tuberculosis
# Streptococcus = assay: Group A Streptococcus viability loss, dose response, counter-screen for streptokinase expression inhibitor project, luminescence, BacTiterGlo (AID 1915); assay type: functional, organism-based;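 also: potency for reduction of bacterial viability or growth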
# [9] = inhibitors of firefly luciferase expression or activity, dose response, H4 neuroglioma cells, luminescence (AID 1990); assay type: functional, cell-based
# [10] = Luminescence Cell-Based Dose Response HTS to Identify Inhibitors of 5'UTR Stem-Loop Driven Prion Protein mRNA Translation in H4 Neuroglioblastoma Cells. [Related pubchem assays: 1827 (Project Summary), 1813 (Primary HTS)]; assay type: functional
# [11] = target: T2, RNA-binding protein pos-1 (Caenorhabditis elegans, UniProt G5EF15); assay: inhibitors of POS-1/mex-3 RNA binding, dose response, biochemical, fluorescence polarization (AID 1964);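 also: purified POS-1 fused to maltose binding protein made in E. coli; potency of compounds blocking POS-1 binding to fluorescent RNA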
# T2 sequence (G5EF15 whole entry): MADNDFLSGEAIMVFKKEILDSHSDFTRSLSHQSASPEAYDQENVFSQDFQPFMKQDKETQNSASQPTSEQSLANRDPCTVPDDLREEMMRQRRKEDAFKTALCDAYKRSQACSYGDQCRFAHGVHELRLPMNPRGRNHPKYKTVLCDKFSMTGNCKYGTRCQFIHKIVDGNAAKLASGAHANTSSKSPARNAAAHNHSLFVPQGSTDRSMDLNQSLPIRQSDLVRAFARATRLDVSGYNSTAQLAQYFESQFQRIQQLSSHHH
# [12] = target: T3, Zinc finger protein mex-5 (Caenorhabditis elegans, UniProt Q9XUB2); assay: MEX-5/TCR-2 RNA interaction inhibitors, dose response, biochemical, C. elegans, fluorescence polarization (AID 1960)
# T3 sequence (Q9XUB2 whole entry): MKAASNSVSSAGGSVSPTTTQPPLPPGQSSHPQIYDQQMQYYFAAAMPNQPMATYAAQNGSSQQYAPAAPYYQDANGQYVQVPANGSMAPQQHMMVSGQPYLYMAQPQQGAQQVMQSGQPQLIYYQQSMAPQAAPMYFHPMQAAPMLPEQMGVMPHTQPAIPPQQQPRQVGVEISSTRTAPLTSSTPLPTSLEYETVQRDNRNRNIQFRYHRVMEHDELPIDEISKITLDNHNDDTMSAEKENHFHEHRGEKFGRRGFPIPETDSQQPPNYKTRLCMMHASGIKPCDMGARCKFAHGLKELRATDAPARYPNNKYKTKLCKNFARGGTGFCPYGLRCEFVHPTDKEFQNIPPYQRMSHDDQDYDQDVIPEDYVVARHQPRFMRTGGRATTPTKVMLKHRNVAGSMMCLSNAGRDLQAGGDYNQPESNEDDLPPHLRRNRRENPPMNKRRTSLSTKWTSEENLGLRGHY
# [13] = target: T4, Rac GTPase-activating protein 1 (Homo sapiens, UniProt Q9H0H5); assay: MgcRacGAP GTPase-activating activity inhibitors, confirmation, biochemical, ADP Hunter fluorescence, primary and confirmatory (AID 624330); assay type: functional
# T4 sequence (Q9H0H5 whole entry): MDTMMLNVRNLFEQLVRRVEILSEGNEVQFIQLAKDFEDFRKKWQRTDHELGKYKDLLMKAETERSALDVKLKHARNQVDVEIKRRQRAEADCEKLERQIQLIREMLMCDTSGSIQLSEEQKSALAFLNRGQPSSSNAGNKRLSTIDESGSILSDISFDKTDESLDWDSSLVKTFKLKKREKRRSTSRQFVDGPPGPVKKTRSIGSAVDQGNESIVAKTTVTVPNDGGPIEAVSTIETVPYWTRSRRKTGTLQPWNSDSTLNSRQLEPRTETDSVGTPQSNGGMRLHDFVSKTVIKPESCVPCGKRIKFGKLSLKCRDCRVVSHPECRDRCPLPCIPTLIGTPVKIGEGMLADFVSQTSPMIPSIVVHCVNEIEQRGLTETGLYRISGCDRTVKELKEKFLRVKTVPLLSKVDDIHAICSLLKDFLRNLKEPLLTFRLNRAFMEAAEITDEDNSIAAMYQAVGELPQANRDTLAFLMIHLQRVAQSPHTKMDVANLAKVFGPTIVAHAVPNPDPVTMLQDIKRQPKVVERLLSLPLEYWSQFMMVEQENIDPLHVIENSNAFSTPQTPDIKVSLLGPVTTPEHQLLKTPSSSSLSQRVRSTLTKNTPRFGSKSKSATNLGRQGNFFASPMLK
# ORF 73 = target: T5, ORF 73 (Human herpesvirus 8, UniProt O40947); assay: inhibitors of C-LANA binding to LBS DNA, dose response, biochemical, fluorescence polarization, cherry-picked samples (AID 504725); parameters: species or system Human gammaherpesvirus 8;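 also: fluorescence polarization of a labeled DNA duplex reporting LANA DNA binding; potency is for inhibitors that block LANA binding to the DNA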
# T5 sequence (O40947 whole entry): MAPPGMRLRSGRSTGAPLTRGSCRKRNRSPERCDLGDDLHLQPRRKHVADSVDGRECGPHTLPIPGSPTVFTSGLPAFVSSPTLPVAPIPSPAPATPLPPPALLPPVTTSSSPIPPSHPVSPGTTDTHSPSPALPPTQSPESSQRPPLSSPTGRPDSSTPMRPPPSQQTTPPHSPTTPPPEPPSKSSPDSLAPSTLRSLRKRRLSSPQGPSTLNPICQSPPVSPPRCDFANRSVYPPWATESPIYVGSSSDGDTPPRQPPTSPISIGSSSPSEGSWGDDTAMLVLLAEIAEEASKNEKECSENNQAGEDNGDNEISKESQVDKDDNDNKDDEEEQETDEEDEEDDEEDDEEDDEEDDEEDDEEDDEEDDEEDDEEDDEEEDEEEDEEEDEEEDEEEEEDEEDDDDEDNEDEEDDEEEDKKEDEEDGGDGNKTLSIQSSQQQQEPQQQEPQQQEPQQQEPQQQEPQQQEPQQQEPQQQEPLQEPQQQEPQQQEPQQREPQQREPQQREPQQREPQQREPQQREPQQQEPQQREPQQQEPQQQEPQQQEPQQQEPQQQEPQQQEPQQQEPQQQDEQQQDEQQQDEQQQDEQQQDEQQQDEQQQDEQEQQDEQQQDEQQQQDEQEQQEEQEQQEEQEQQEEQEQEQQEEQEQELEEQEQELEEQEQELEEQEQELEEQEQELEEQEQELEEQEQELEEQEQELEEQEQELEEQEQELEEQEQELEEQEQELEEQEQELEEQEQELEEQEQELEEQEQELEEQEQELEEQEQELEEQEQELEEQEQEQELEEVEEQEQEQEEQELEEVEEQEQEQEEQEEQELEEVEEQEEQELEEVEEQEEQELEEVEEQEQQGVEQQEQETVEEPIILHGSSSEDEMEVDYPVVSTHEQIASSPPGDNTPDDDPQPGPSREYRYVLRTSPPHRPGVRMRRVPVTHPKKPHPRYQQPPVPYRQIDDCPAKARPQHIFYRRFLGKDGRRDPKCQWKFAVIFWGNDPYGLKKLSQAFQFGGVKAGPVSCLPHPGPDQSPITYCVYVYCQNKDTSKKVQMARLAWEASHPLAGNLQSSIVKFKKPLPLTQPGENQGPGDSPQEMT
# Genome polyprotein = Genome polyprotein (dengue virus type 2, UniProt P29990); assay: Dengue-2 NS5 methyltransferase inhibitors, primary screen, biochemical, confirmation dose response (AID 588689); assay type: functional
# Chain of Genome polyprotein (P29990 2492-3391 limits assumed): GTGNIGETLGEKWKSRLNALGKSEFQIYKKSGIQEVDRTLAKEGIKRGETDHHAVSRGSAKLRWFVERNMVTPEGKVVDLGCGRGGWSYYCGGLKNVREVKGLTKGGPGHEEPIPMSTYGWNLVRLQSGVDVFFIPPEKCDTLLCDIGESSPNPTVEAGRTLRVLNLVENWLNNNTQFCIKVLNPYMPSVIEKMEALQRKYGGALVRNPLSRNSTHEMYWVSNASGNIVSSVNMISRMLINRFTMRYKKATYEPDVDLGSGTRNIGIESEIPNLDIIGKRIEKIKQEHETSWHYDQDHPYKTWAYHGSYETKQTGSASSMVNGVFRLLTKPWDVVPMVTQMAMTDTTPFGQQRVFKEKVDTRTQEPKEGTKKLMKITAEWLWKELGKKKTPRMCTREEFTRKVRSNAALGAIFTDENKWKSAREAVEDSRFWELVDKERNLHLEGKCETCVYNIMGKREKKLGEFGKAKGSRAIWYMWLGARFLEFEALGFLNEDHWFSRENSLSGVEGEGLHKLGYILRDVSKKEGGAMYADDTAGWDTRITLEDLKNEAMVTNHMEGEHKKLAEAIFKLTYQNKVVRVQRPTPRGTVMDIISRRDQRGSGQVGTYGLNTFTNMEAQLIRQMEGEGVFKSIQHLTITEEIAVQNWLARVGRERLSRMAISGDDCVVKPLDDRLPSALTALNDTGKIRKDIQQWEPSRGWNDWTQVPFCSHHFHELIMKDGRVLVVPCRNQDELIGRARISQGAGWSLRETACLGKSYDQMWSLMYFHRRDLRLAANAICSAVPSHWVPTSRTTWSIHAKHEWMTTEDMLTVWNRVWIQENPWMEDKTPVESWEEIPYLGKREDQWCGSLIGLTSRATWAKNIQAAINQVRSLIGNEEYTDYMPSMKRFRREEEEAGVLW
compound,measurement,setting,value
CC(C(=O)Nc1ccccc1)n1sc2ccccc2c1=O (centres undefined),IC50,Hexokinase,8.14 µM (active)
COc1cccc(NC(=O)Cn2sc3ccccc3c2=O)c1,IC50,Hexokinase,5.03 µM (active)
O=C(COc1ccc(C=NNC(=O)c2ccc(O)cc2)cc1)Nc1ccc([N+](=O)[O-])cc1,IC50,[1],> 100 µM (inactive)
same,IC50,[2],5.8 µM (active)
CC(C)Cn1c(=O)c(C(=O)Nc2ccncc2)c(O)c2ccccc21,IC50,cells,16.9 µM (active)
same,CC50,[3],12.4 µM (active)
same,EC50,[4],10.9 µM (active)
same,EC50,[5],5.54 µM (active)
same,AC50,[6],6.7 µM (active)
same,CC50,[7],16.5 µM (active)
same,CC50,[8],19.1 µM (active)
same,EC50,Streptococcus,7.31 µM (active)
same,EC50,[9],> 120 µM (not active)
same,EC50,[10],> 120 µM (not active)
O=C(O)c1ccc2c(c1)C(=O)/C(=C\c1ccco1)C2=O,EC50,[11],> 300 µM (not active)
same,EC50,[12],32.1 µM (active)
same,IC50,[13],89.2 µM (active)
same,AC50,ORF 73,133 µM (active)
same,IC50,Genome polyprotein,12.3 µM (active)
